Source: US20260216347A1, “Substituted Imidazo-Based Compounds as Ligand Directed Degraders of IRAK3” (Celgene Corporation, priority 2022, published 2026)

Experiments:
IRAK3 [1] = biological target: T1, IRAK3 (Homo sapiens, UniProt Q9Y616); test: IRAK endogenous HTRF degradation assay (Total-IRAK3 HTRF kit); format: cell-based; conditions: overnight incubation, lowest percentage of protein remaining
T1 construct: IRAK Endogenous HTRF Degradation Assay; endogenous in cells
T1 sequence (Q9Y616 1-596): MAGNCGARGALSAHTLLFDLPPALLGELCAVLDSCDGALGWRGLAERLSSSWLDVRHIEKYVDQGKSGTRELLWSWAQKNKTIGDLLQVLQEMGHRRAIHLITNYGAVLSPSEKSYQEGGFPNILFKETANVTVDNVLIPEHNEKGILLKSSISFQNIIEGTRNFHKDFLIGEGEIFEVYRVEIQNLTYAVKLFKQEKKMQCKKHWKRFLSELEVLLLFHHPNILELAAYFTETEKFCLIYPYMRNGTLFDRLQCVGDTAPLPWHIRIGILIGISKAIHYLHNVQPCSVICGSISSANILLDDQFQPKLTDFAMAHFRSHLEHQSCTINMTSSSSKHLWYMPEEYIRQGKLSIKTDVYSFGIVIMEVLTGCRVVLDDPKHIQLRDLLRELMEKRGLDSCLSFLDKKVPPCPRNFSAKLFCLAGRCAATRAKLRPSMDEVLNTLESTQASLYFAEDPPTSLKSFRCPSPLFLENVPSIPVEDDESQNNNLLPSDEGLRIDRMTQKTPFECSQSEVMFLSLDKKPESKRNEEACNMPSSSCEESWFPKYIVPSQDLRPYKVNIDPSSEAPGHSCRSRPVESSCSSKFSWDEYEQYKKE
Method: Example B2. IRAK Endogenous HTRF Degradation Assay
Cells (~50 k) were plated in Cisbio 96-well low volume white plates (Cisbio: cat #66PL96005). Compounds were dissolved in DMSO and a 3-fold serial dilution was performed using a TECAN D300E. Cells were incubated with the compound overnight. Total-IRAK3 HTRF kit from Cisbio was used for degradation analysis (Cisbio: 63ADK101PEH). Cryptate and D2 antibodies were diluted in Detection buffer as per manufacturers recommendation. Then 2 μL of each solution was added to 16 μL lysate. Buffer control (lysis buffer detection buffer), Cryptate control (lysis buffer+cryptate antibody+detection buffer), and Negative control (lysis buffer+cryptate antibody+D2 antibody) were made as per manufacturers recommendation. Post incubation with antibodies the HTRF signal was measured using a Perkin Elmer Envision reader and the HTRF signal was calculated using formula: (Emission at 665 nm/Emission at 615 nm)*10,000. All HTRF values were normalized to the average value of DMSO. The average value of the DMSO control wells were set to equal 100% of the relative IRAK3 protein levels. Normalized luminescence values were plotted on a graph as a function of compound concentration. Compound concentration was plotted on the x-axis and the corresponding normalized IRAK3 protein levels on the y-axis. The EC50 value (the half-maximum effective concentration) of a compound for the degradation of the IRAK3 was calculated using a four-parameter logistic model (sigmoidal dose-response model) (FIT=(A+{(B−A)/1+[(C/x)D]})) where C is the inflection point (EC50), D is the […], and A and B are the low and high limits of the fit, respectively). The Ymin was calculated by determining the lowest percentage of target protein remaining following compound treatment. Dmax was calculated from Ymin (% Dmax=100−Ymin).
Using these assays, IC50, Dmax, EC50, and DC50 values of the following compounds were determined. Dmax is defined as the maximum percent degradation achieved and DC50 is the concentration at which 50% degradation is achieved.

IRAK3 [2] = biological target: T1, IRAK3; test: IRAK3 biochemical binding assay (LanthaScreen Eu Kinase Binding, TR-FRET)
How it was run: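 TR-FRET tracer-displacement binding with 10 nM IRAK3, 2 nM Eu-anti-GST antibody and 10 nM tracer in 50 mM HEPES pH 7.4, MgCl2, 1 mM EGTA, 0.01% Brij-35. Compounds in 3-fold dilutions, 1 h at room temperature. 665/615 nm ratio gave % inhibition; IC50 and Hill slope from dose-response fit.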

IRAK3-ePL = biological target: T2, IRAK3-ePL (Homo sapiens, UniProt Q9Y616); test: IRAK3-ePL overexpressing degradation assay (InCELL Hunter luminescence, dose response); format: cell-based; conditions: for IRAK3 ePL degradation Ymin: lowest percentage of target protein remaining following compound treatment; for DC50: read-out: IRAK3 ePL degradation EC50
T2 construct: expressed in transfected cells; host or cells: 293T CRBN OE/GSPT1 G575N KI cells, lentiviral transduction, puromycin selected
How it was run: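 Lenti-X 293T CRBN/GSPT1 G575N cells stably expressing IRAK3-ePL (5,000/well) treated overnight at 37° C with 10-point 3-fold dilutions from 10 μM, 0.2% DMSO. InCELL Hunter luminescence, background subtracted using Ataluren wells and normalized to DMSO; EC50 from four-parameter logistic fit.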

Row | IRAK3 HTRF degradation Ymin (IRAK3 [1]) [%] | IC50 (IRAK3 [2]) [nM] | IRAK3 ePL degradation Ymin (IRAK3-ePL) [%] | DC50 (IRAK3-ePL) [nM] | Structure (SMILES)
1 | 18 | 1.7 | – | – | COc1cc(N2CCN(CCN3CCC(n4cc(Nc5ncc(-c6cc(C)c(F)cc6F)n6ccnc56)cn4)CC3)CC2)ccc1C1CCC(=O)NC1=O (stereo not shown) [Compound 25, 3-(4-(4-(2-(4-(4-((5-(2,4-difluoro-5-methylphenyl)imdazo [1,2-a]pyrazin-8-yl)amino)-1H-pyrazol-1-yl)piperidin-1-yl)ethyl)piperazin-1-yl)-2-methoxyphenyl) piperidine-2,6-dione]
2 | 64 | – | 84 | 1100 | Cc1cc(-c2cnc(Nc3cnn(C4CCN(CCN5CCN(c6ccc(C7CCC(=O)N(C)C7=O)cc6)CC5)CC4)c3)c3nccn23)c(F)cc1F (stereo not shown) [Compound 55, 3-(4-(4-(2-(4-(4-((5-(2,4-difluoro-5-methylphenyl)imdazo [1,2-a]pyrazin-8-yl)amino)-1H-pyrazol-1-yl)piperidin-1-yl)ethyl)piperazin-1-yl)phenyl)-1-methylpiperidine-2,6-dione]
3 | 8.6 | – | 23 | 0.75 | Cc1cc(-c2cnc(Nc3cnn(C4CCN(CCN5[C@@H](C)CN(c6ccc(C7CCC(=O)NC7=O)cc6)C[C@@H]5C)CC4)c3)c3nccn23)c(F)cc1F (stereo partly drawn) [Compound 56, 3-(4-((3S,5S)-4-(2-(4-(4-((5-(2,4-difluoro-5-methylphenyl)imdazo [1,2-a]pyrazin-8-yl)amino)-1H-pyrazol-1-yl)piperidin-1-yl)ethyl)-3,5-dimethylpiperazin-1-yl)phenyl) piperidine-2,6-dione]
4 | 8.72 | – | 24 | 5.7 | Cc1cc(-c2cnc(Nc3cnn([C@H]4CC[C@H](CCN5CCN(c6ccc(C7CCC(=O)NC7=O)cc6)C[C@@H]5C)CC4)c3)c3nccn23)c(F)cc1F (stereo partly drawn) [Compound 57, 3-(4-((S)-4-(2-((trans)-4-(4-((5-(2,4-difluoro-5-methylphenyl)imidazo[1,2-a]pyrazin-8-yl)amino)-1H-pyrazol-1-yl)cyclohexyl)ethyl)-3-methylpiperazin-1-yl)phenyl) piperidine-2,6-dione]
5 | 9.7 | – | 25 | 0.98 | Cc1cc(-c2cnc(Nc3cnn(C4CCN(CCN5[C@H](C)CN(c6ccc(C7CCC(=O)NC7=O)cc6)C[C@H]5C)CC4)c3)c3nccn23)c(F)cc1F (stereo partly drawn) [Compound 58, 3-(4-((3R,5R)-4-(2-(4-(4-((5-(2,4-difluoro-5-methylphenyl)imdazo [1,2-a]pyrazin-8-yl)amino)-1H-pyrazol-1-yl)piperidin-1-yl)ethyl)-3,5-dimethylpiperazin-1-yl)phenyl) piperidine-2,6-dione]
6 | 7.5 | – | 21 | 0.51 | Cc1cc(-c2cnc(Nc3cnn([C@@H]4CCN(CCN5CCN(c6ccc(C7CCC(=O)NC7=O)cc6)C[C@@H]5C)[C@H](C)C4)c3)c3nccn23)c(F)cc1F (stereo partly drawn) [Compound 59, 3-(4-((S)-4-(2-((2R,4R)-4-(4-((5-(2,4-difluoro-5-methylphenyl)imdazo [1,2-a]pyrazin-8-yl)amino)-1H-pyrazol-1-yl)-2-methylpiperidin-1-yl)ethyl)-3-methylpiperazin-1-yl)phenyl) piperidine-2,6-dione]
7 | 20 | – | 41 | 18 | Cc1cc(-c2cnc(Nc3cnn(C4CCN(CCN5CCN(c6ccc(C7CCC(=O)NC7=O)cc6)CC5)CC4)c3)c3ncc(C)n23)c(F)cc1F (stereo not shown) [Compound 61, 3-(4-(4-(2-(4-(4-((5-(2,4-difluoro-5-methylphenyl)-3-methylimidazo[1,2-a]pyrazin-8-yl)amino)-1H-pyrazol-1-yl)piperidin-1-yl)ethyl)piperazin-1-yl)phenyl) piperidine-2,6-dione]
8 | 8.9 | – | 25 | 0.51 | Cc1cc(-c2cnc(Nc3cnn([C@H]4CCN(CCN5CCN(c6ccc(C7CCC(=O)NC7=O)cc6)CC5)C[C@H]4F)c3)c3nccn23)c(F)cc1F (stereo partly drawn) [Compound 63, 3-(4-(4-(2-((3R,4S)-4-(4-((5-(2,4-difluoro-5-methylphenyl)imdazo [1,2-a]pyrazin-8-yl)amino)-1H-pyrazol-1-yl)-3-fluoropiperidin-1-yl)ethyl)piperazin-1-yl)phenyl) piperidine-2,6-dione]

Further lines, the compound ahead of its results:

Row | Structure (SMILES) | IRAK3 HTRF degradation Ymin (IRAK3 [1]) [%] | IC50 (IRAK3 [2]) [nM] | IRAK3 ePL degradation Ymin (IRAK3-ePL) [%] | DC50 (IRAK3-ePL) [nM]
9 | Cc1cc(-c2cnc(Nc3cnn(C4CCN(C(=O)CN5CCN(c6ccc7c(c6)C(=O)N(C6CCC(=O)NC6=O)C7=O)CC5)CC4)c3)c3nccn23)c(F)cc1F (stereo not shown) [Compound 24, 5-(4-(2-(4-(4-((5-(2,4-difluoro-5-methylphenyl)imidazo[1,2-a]pyrazin-8-yl)amino)-1H-pyrazol-1-yl)piperidin-1-yl)-2-oxoethyl)piperazin-1-y1)-2-(2,6-dioxopiperidin-3-yl)isoindoline-1,3-dione] | 25 | 4.6 | – | –
10 | Cc1cc(-c2cnc(Nc3cnn(C4CCN(CCN5CCN(c6ccc(C7CCC(=O)NC7=O)c(Cl)c6)CC5)CC4)c3)c3nccn23)c(F)cc1F (stereo not shown) [Compound 54, 3-(2-chloro-4-(4-(2-(4-(4-((5-(2,4-difluoro-5-methylphenyl)imdazo [1,2-a]pyrazin-8-yl)amino)-1H-pyrazol-1-yl)piperidin-1-yl)ethyl)piperazin-1-yl)phenyl) piperidine-2,6-dione] | 15 | – | 28 | 10
11 | Cc1cc(-c2cnc(N[C@@H]3CCN(C4CCN(CCN5CCN(c6ccc(C7CCC(=O)NC7=O)cc6)CC5)CC4)C3)c3nccn23)c(F)cc1F (stereo partly drawn) [Compound 60, 3-(4-(4-(2-(4-((R)-3-((5-(2,4-difluoro-5-methylphenyl)imdazo [1,2-a]pyrazin-8-yl)amino)pyrrolidin-1-yl)piperidin-1-yl)ethyl)piperazin-1-yl)phenyl) piperidine-2,6-dione] | 96 | – | 92 | 0.51
12 | Cc1cccc(-c2cnc(Nc3cnn([C@H]4CC[C@H](CCN5CCN(c6ccc(C7CCC(=O)NC7=O)cc6)CC5)CC4)c3)c3nccn23)c1 (stereo partly shown) [Compound 64] | 8.6 | – | 25 | 4.2
13 | Cc1cc(-c2cnc(N[C@H]3CCN(C4CCN(CCN5CCN(c6ccc(C7CCC(=O)NC7=O)cc6)CC5)CC4)C3)c3nccn23)c(F)cc1F (stereo partly drawn) [Compound 65, 3-(4-(4-(2-(4-((S)-3-((5-(2,4-difluoro-5-methylphenyl)imdazo [1,2-a]pyrazin-8-yl)amino)pyrrolidin-1-yl)piperidin-1-yl)ethyl)piperazin-1-yl)phenyl) piperidine-2,6-dione] | 96 | – | 86 | 3300
14 | Cn1cc(-c2cnc(Nc3cnn(C4CCN(CCN5CCN(c6ccc(C7CCC(=O)NC7=O)cc6)CC5)CC4)c3)c3nccn23)cn1 (stereo not shown) [Compound 73, 3-(4-(4-(2-(4-(4-((5-(1-methyl-1H-pyrazol-4-yl)imidazo[1,2-a]pyrazin-8-yl)amino)-1H-pyrazol-1-yl)piperidin-1-yl)ethyl)piperazin-1-yl)phenyl) piperidine-2,6-dione] | 9.1 | – | 24 | 0.51
